Columns and labels:
[1] = test system: epicardial border zone; experiment: Canine infarct epicardial border zone, electrograms and microelectrode study; type: in vivo, dog; conditions: 5 d after infarct and injection
[2] = test system: neonatal myocyte cultures; experiment: Optical recording of CV and maximum pacing frequency in neonatal myocyte cultures; type: cell-based; conditions: high K (10.4 mM), vs GFP cultures
Protocol: Adenoviral treated neonatal myocyte cultures expressed SkM1 or GFP and were studied in normal and high (10.4 mM) K. Left: The effectiveness of SkM1 expression to maintain high CV persists as pacing frequency increases.
To determine if the gating characteristics of the expressed channel allow this protective effect to persist at higher frequencies, as may occur during reentrant arrhythmias, CV restitution relations in myocyte cultures expressing SkM1 Na channels+GFP and in control cultures (expressing GFP alone) was studied. FIG. 53 illustrates that CV remains greater as frequency increases, both in normal Tyrode's solution and in elevated K solution. Further, in the absence of SkM1, the breakpoint frequency is reduced in high K.

[3] = test system: hMSCs; experiment: Patch clamp of hMSCs expressing SkM1 Na channel; type: cell-based, human; conditions: expressed in hMSCs
From the text: Left: An hMSC transfected with SkM1 was held at potentials between −100 mV and −70 mV and pulsed to 0 mV. Since the current induced from −70 mV is > half the magnitude of the current induced from −100 mV the midpoint of inactivation was positive to −70 mV. Right: hMSCs were held at holding potentials between −100 and −55 mV for 1.5 sec and pulsed to 0 mV for 150 msec. The Boltzmann 2-state fit gives a midpoint of −62.4±3.2 mV and a slope factor of −10.3±3.2 mV.
For research on myocardial infarct-induced ventricular tachycardia, a Na channel gene with a more positive inactivation versus voltage relationship than found normally in cardiac myocytes was required. The skeletal muscle Na channel was investigated because of its reported midpoint of inactivation of −68 mV.

[4] = test system: neonatal rat ventricular myocyte cultures; experiment: Conduction velocity in neonatal rat ventricular myocyte cultures on multi-electrode array; type: cell-based; conditions: K 5.4 to 10 mM
[5] = cited from earlier work
[6] = test system: neonatal myocytes; experiment: Action potential upstroke in neonatal myocytes under K depolarization; type: cell-based, rat
Protocol: FIG. 49: Effect of K depolarization on action potential upstroke in neonatal myocytes in the absence and presence of SKM1 expression. […] The elevated K reduced the upstroke to 68% of its control value (mean value after elevated K is 56% of control). Bottom) In an SKM1 expressing myocyte the upstroke is better preserved, measuring 83% of its control value in elevated K.
Top) In GFP but not SkM1 cultures there is a significant effect on CV of increasing K from 5.4 to 10 mM.
Action potentials are recorded using a patch electrode in whole cell mode on cells superfused at 35° C. These experiments are conducted on monolayer cultures when studying control conditions or when employing viral expression, which achieves near uniform expression. For studying transfected cells, the culture is resuspended on the day of experiment and cells selected on the basis of GFP fluorescence, with the GFP being part of the channel vector or co-transfected with a separate vector. Extracellular and pipette solutions are as previously employed. The external solution contains (mM): NaCl 140, KCl 5.4, CaCl2 1, MgCl2 1, HEPES 5, glucose 10, adjusted to pH 7.4. The internal solution contains (mM): aspartic acid 130, KOH 146, NaCl10, CaCl2 2, EGTA 5, HEPES10, MgATP 2, adjusted to pH 7.2. […] Parameters recorded are Vmax, MDP, action potential amplitude (AMP) and APD50.

[7] = target: native SCN5A channel (Homo sapiens, UniProt Q14524); conditions: cited from earlier work
[8] = test system: Cx43; conditions: mM range, exposure times of hours; cited from earlier work
[9] = test system: Cx43; experiment: Western blot of HeLa cells expressing Cx43 exposed to 4PB; type: cell-based; conditions: HeLa cells transfected with Cx43, increasing doses
From the text: FIG. 34 illustrates a Western blot where HeLa cells expressing Cx43 have been exposed to increasing doses of 4PB.
4PB is an FDA approved drug that can be administered orally, which is being tested for effectiveness in spinal muscular atrophy (Wirth et al., 2006; Brahe et al., 2005), and cystic fibrosis (Singh et al., 2006). […] In addition, stress in the form of mildly elevated temperatures up-regulates connexin expression and increases the total number of functional channels (VanSlyke and Musil, 2005). The chemical chaperone (4PB), a known inhibitor of histone deacetylase, an enzyme associated with inactivation of gene transcription, increases Cx43 production at concentrations in the mM range and exposure times of hours. Not only is Cx43 production elevated 2-5 fold but enhanced dye transfer is observed (Asklund et al., 2004). […] The present inventors have determined that the time course of coupling between hMSCs or model cells with myocytes reaches 50% of maximum within 48 hours.

[10] = test system: Cx43, 40, 45; experiment: Example 4: chemical chaperone treatment of hMSC/myocyte co-culture, connexin expression and coupling; type: cell-based; conditions: initial results
Protocol: hMSCs and myocytes in co-culture are treated with a chemical chaperone (4 PB, 4-Phenylbutric acid, FDA approved) or zp123 (Rotigaptide) a synthetic antiarrhythmia peptide, that increases Cx43 mediated coupling. Western blot analysis and RT-PCR will be used to test protein abundance and expression for Cx43, 40, 45. Dual whole cell patch clamp will be used to determine the time course of junctional coupling. Western blot analysis and RT-PCR to test for protein abundance and expression for Cx43, 40, 45. The effects of 4PB and zp123 on hMSCs alone and myocytes alone will be assesed. Co-culturing of hMSCS and myocytes (atrial or ventricular) will also be done and a vital dye (Valiunas et al., 2005) will be used on hMSCs so that after defined time intervals of co-culture fluorescence activated cell sorting can be used to isolate the cell types and Western blot analysis and RT-PCR can be performed to assess abundance and expression respectively. A peptidase, such as dipeptidyl-peptidase or equivalent, will be used to cleave any zp123 that is secreted into the extracellular space. Dual whole cell patch clamp will be used to determine the time course of junctional coupling over a 96 hour interval at 24, 48 and 96 hours respectively. […] This should translate into enhanced coupling in the form of increased junctional conductance relative to controls.

Sequence of native SCN5A channel (Q14524 whole entry): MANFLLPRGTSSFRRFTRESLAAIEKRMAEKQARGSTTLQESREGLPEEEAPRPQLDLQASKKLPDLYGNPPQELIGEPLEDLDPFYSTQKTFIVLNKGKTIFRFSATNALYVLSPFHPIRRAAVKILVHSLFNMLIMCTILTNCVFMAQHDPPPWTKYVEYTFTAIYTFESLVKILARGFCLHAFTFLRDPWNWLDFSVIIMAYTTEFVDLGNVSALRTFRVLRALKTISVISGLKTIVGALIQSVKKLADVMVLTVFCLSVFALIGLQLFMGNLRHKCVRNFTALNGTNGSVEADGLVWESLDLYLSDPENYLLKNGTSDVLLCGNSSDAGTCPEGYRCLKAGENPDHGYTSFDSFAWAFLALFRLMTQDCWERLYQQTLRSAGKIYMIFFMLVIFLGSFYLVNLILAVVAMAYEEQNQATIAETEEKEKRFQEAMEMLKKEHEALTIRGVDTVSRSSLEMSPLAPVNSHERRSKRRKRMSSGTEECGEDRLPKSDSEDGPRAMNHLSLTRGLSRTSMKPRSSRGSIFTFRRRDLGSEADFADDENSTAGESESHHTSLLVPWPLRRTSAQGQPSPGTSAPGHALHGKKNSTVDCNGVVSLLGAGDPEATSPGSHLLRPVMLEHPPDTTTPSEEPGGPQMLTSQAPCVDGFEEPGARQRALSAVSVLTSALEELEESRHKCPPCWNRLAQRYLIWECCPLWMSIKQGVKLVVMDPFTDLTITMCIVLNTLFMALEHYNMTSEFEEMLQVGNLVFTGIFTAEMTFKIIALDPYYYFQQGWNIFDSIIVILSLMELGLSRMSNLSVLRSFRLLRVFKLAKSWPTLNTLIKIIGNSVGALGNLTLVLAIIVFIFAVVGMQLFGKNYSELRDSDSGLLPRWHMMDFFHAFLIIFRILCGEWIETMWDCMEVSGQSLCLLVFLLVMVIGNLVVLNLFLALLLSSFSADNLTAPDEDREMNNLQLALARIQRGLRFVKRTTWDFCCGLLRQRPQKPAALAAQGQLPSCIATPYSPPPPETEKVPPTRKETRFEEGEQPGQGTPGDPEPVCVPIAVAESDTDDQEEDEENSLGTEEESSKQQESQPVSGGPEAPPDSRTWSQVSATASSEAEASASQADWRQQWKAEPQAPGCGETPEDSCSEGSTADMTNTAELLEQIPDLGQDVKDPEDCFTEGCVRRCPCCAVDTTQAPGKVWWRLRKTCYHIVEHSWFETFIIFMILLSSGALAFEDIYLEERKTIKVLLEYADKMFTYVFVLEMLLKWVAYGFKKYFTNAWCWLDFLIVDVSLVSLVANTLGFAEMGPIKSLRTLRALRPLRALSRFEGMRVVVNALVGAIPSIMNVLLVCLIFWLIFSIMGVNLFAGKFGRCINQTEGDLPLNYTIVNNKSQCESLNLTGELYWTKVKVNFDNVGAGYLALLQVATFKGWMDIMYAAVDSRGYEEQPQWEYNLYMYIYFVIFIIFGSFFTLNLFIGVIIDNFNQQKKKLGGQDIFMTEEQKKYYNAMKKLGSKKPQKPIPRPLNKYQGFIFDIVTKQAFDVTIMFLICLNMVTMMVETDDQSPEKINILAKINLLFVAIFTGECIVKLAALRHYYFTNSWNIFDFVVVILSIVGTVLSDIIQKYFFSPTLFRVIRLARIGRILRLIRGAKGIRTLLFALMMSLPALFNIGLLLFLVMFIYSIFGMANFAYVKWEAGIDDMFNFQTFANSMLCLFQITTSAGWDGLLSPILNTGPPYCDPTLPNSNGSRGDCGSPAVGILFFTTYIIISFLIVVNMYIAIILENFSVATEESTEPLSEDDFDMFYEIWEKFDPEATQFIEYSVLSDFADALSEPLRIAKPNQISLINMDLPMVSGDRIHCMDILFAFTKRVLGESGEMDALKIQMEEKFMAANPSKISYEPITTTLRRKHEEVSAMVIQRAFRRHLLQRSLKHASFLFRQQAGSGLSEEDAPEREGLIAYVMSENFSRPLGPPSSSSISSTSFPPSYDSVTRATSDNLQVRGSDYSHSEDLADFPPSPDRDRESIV

## SkM1: skeletal muscle sodium channel, expressed from gene in hMSCs or myocytes
[1]
  electrogram at injected epicardial border zone site: narrow spike
[1]; equivalent membrane depolarization
  Vmax, injected site 1 vs non-injected site 2: nearly twice that of site 2
[2]
  break-point frequency (resistance to rhythm instabilities): higher break-point frequencies
[3]
  midpoint of inactivation: −62.4±3.2 mV
[3]; Boltzmann 2-state fit
  Slope factor: −10.3±3.2 mV
[3]; listed as skeletal muscle Na channel
  midpoint of inactivation: −62 mV
[3]; listed as skeletal muscle sodium channel
  midpoint of inactivation: −62 mV
[4]
  effect of membrane depolarization on CV and V′max: significantly reduces CV and V′max of control cells, but not the SkM1 expressing cells
[5]; as stated in Example 16 group description
  inactivation midpoint: −65 mV
[5]; as worded
  activation midpoint: −68 mV
[5]; steady state inactivation
  Slope factor: −5.4 mV
[6]; 10 K
  Vmax: > 100 V/s
[6]; elevated K (10 mM) vs 5.4 mM
  action potential upstroke, % of control value: 83%

## [Cd+2] [Cd^2+]
[7]
  Kd: a few hundred

## O=C(O)CCCc1ccccc1 [4PB, 4-Phenylbutric acid]
[8]
  Cx43 production elevated: 2-5 fold
[9]
  Cx43 expression: up-regulates Cx43
[10]
  connexin up-regulation: causes up-regulation

— US20100189701A1, “METHODS AND COMPOSITIONS TO TREAT ARRHYTHMIAS” (priority 2007, published 2010)
